Assay results published in patent US20250281464A1, “TREATMENT OF PATHOGENIC NEISSERIA SP. INFECTION WITH TRIAZOLE ANTIFUNGAL AGENTS” (Virginia Tech Intellectual Properties, Inc., priority 2022, published 2025).
Values after ≈ are worked out from the molar mass of the structure shown. Where two headings read alike, the source gives them in different places.

Columns and labels:
Lactobacillus casei = assay: MIC against normal gut microbiota; type: cell-based; conditions: Lactobacillus casei (1 strain)
Text: (§1) Disrupting the intestinal microbiota using broad-spectrum antimicrobial therapy increases the susceptibility of hosts to C. difficile colonization.

Lactobacillus brevis = assay: MIC against normal gut microbiota; type: cell-based; conditions: Lactobacillus brevis (1 strain)
Text: as §1

Lactobacillus rhamnosus = assay: MIC against normal gut microbiota; type: cell-based; conditions: Lactobacillus rhamnosus (1 strain)
Text: as §1

Bacteroides dorei = assay: MIC against normal gut microbiota; type: cell-based; conditions: Bacteroides dorei (2 strains)
Text: as §1

Staphylococcus aureus = assay: MIC against normal gut microbiota; type: cell-based; conditions: Staphylococcus aureus (1 strain)
Text: as §1

Escherichia coli = assay: MIC against normal gut microbiota; type: cell-based; conditions: Escherichia coli (1 strain)
Text: as §1

[1] = MIC against normal gut microbiota; type: cell-based
Text: as §1

Bacteroides fragilis = assay: MIC against normal gut microbiota; type: cell-based; conditions: Bacteroides fragilis (4 strains)
Text: as §1

Enterococcus faecium = assay: MIC against normal gut microbiota; type: cell-based; conditions: Enterococcus faecium (1 strain)
Text: as §1

[2] = system: Bifidobacterium angulatum; assay: MIC against normal gut microbiota; type: cell-based; conditions: Bifidobacterium angulatum (1 strain)
Text: as §1

Enterococcus faecalis = assay: MIC against normal gut microbiota; type: cell-based; conditions: Enterococcus faecalis (1 strain)
Text: as §1

L. johnsonii = assay: MIC against commensal vaginal Lactobacillus strains; type: cell-based, Lactobacillus johnsonii; conditions: Table 6, L. johsonii (2 strains)
Text: (§2) N. gonorrhoeae pathogenesis greatly depends on colonization of the reproductive tract. One of the natural barriers of such colonization is an intact healthy microbiome. Species of lactobacilli present in the genitourinary tract play a significant role in hindering colonization by Neisseria(1).
(§3) A healthy vaginal microbiome that is dominated by Lactobacillus spp. is less susceptible to N. gonorrhoeae infection and other sexually transmitted diseases (STDs). […] We tested the activity of azoles against important members of healthy vaginal microbiota that inhibit N. gonorrhoeae colonization.

L. jensenii = assay: as above; type: cell-based, Lactobacillus jensenii; conditions: Table 6, L. jensenii (7 strains)
Text: as §2, §3

L. gasseri = assay: as above; type: cell-based, Lactobacillus gasseri; conditions: Table 6, L. gasseri (4 strains)
Text: as §2, §3

[3] = system: commensal vaginal lactobacilli strains; assay: MIC against all commensal vaginal Lactobacillus strains tested; type: cell-based, Lactobacillus spp.
Text: as §2, §3

N. gonorrhoeae isolates = assay: MIC against panel of N. gonorrhoeae clinical isolates; type: cell-based, Neisseria gonorrhoeae
L. crispatus = assay: MIC against commensal vaginal Lactobacillus strains; type: cell-based, Lactobacillus crispatus; conditions: Table 6, L. crispatus (3 strains)
Text: as §2, §3

[4] = Bacteroides adolescentis (2 strains)
[5] = Table 1, 104 N. gonorrhoeae isolates
[6] = Table 3, 103 N. gonorrhoeae isolates with different resistance profiles

Compound	MIC Range (Lactobacillus casei) [µg/mL]	MIC Range (Lactobacillus brevis) [µg/mL]	MIC Range (Lactobacillus rhamnosus) [µg/mL]	MIC Range (Bacteroides dorei) [µg/mL]	MIC Range (Staphylococcus aureus) [µg/mL]	MIC Range (Escherichia coli) [µg/mL]	MIC Range [1, 4] [µg/mL]	MIC Range ([1]; Bacteroides breve (2 strains)) [µg/mL]	MIC Range ([1]; Bacteroides longum (2 strains)) [µg/mL]	MIC Range (Bacteroides fragilis) [µg/mL]	MIC Range (Enterococcus faecium) [µg/mL]	MIC Range [2] [µg/mL]	MIC Range (Enterococcus faecalis) [µg/mL]	MIC Range (L. johnsonii) [µg/mL]	MIC Range (L. jensenii) [µg/mL]	MIC Range (L. gasseri) [µg/mL]	MIC Range (N. gonorrhoeae isolates; [5]) [µg/mL]	MIC Range (N. gonorrhoeae isolates; [6]) [µg/mL]	MIC Range (L. crispatus) [µg/mL]	other results
O=c1ccc2ncc(=O)n3c2n1C[C@H]3CN1CCC(NCc2cc3c(cn2)OCCC3)CC1 [Gepotidacin]	0.25 (≈ 0.557 µM)	0.5 (≈ 1.11 µM)	0.5 (≈ 1.11 µM)	0.125 (≈ 0.279 µM)	0.25 (≈ 0.557 µM)	0.125 (≈ 0.279 µM)	<0.125	<0.125	0.5 (≈ 1.11 µM)	0.25 to 2	2 (≈ 4.46 µM)	0.125 (≈ 0.279 µM)	1 (≈ 2.23 µM)	≤1	≤1	≤1	0.03 to 8	0.03 to 8	≤1	MIC ([3]; all species/strains of Lactobacillus tested (Example 2), read-out: MIC): < 1 µg/mL; MIC50 (N. gonorrhoeae isolates; Neisseria gonorrhoeae, Table 1, 104 N. gonorrhoeae isolates, read-out: MIC50): 0.25 µg/mL (≈ 0.557 µM); MIC90 (N. gonorrhoeae isolates; Neisseria gonorrhoeae, Table 1, 104 N. gonorrhoeae isolates, read-out: MIC90): 0.5 µg/mL (≈ 1.11 µM); MIC50 (N. gonorrhoeae isolates; Neisseria gonorrhoeae, Table 3, 103 N. gonorrhoeae isolates with different resistance profiles, read-out: MIC50): 0.5 µg/mL (≈ 1.11 µM); MIC90 (N. gonorrhoeae isolates; Neisseria gonorrhoeae, Table 3, 103 N. gonorrhoeae isolates with different resistance profiles, read-out: MIC90): 1 µg/mL (≈ 2.23 µM)
C[C@@H]1CN2c3c(cc4c(N5C(=O)OC[C@@H]5C)noc4c3F)CC3(C(=O)NC(=O)NC3=O)[C@H]2[C@H](C)O1 [Zoliflodacin]	<0.125	1 (≈ 2.05 µM)	0.125 (≈ 0.256 µM)	0.5 to 1	0.125 (≈ 0.256 µM)	0.25 (≈ 0.513 µM)	1 (≈ 2.05 µM)	4 (≈ 8.21 µM)	1 to 2	2 to 8	2 (≈ 4.1 µM)	1 (≈ 2.05 µM)	0.5 (≈ 1.03 µM)	≤1	≤1	≤1	0.004 to 0.5	0.004 to 0.25	≤1	MIC ([3]; Lactobacillus): < 1 µg/mL; MIC50 (N. gonorrhoeae isolates; Neisseria gonorrhoeae): 0.06 µg/mL (≈ 0.123 µM); MIC90 (N. gonorrhoeae isolates; Neisseria gonorrhoeae): 0.125 µg/mL (≈ 0.256 µM); MIC50 (N. gonorrhoeae isolates; [6]): 0.06 µg/mL (≈ 0.123 µM); MIC90 (N. gonorrhoeae isolates; [6]): 0.125 µg/mL (≈ 0.256 µM)
